Values quoted from earlier work, collected in article PMC9262839 (Cancer Discovery, 2022).

Key:
[1] = cited from earlier work
NSCLC with EGFRexon20ins = conditions: cited from earlier work

Molecule: C=CC(=O)Nc1cc(Nc2ncc(C(=O)OC(C)C)c(-c3cn(C)c4ccccc34)n2)c(OC)cc1N(C)CCN(C)C [Mobocertinib]
- patients with ≥grade 3 diarrhea [1]: 21%
- patients with ≥grade 3 treatment-related adverse events [1]: around 40%

B1: amivantamab: EGFR and MET bispecific antibody (antibody, chains of the INN, looked up, V domains shown)
VH: QVQLVESGGGVVQPGRSLRLSCAASGFTFSTYGMHWVRQAPGKGLEWVAVIWDDGSYKYYGDSVKGRFTISRDNSKNTLYLQMNSLRAEDTAVYYCARDGITMVRGVMKDYFDYWGQGTLVTVSS
VL: AIQLTQSPSSLSASVGDRVTITCRASQDISSALVWYQQKPGKAPKLLIYDASSLESGVPSRFSGSESGTDFTLTISSLQPEDFATYYCQQFNSYPLTFGGGTKVEIK
VH2: QVQLVQSGAEVKKPGASVKVSCETSGYTFTSYGISWVRQAPGHGLEWMGWISAYNGYTNYAQKLQGRVTMTTDTSTSTAYMELRSLRSDDTAVYYCARDLRGTNYFDYWGQGTLVTVSS
VL2: DIQMTQSPSSVSASVGDRVTITCRASQGISNWLAWFQHKPGKAPKLLIYAASSLLSGVPSRFSGSGSGTDFTLTISSLQPEDFATYYCQQANSFPITFGQGTRLEIK
- objective response rate (ORR) (NSCLC with EGFRexon20ins): around 40%
